The source of these data is patent US20110312968A1, “METHOD FOR OPTIMIZING THE TREATMENT OF CHRONIC MYELOID LEUKEMIA WITH ABL TYROSINE KINASE INHIBITORS” (priority 2008, published 2011).

In assay [1] the test system is Shp1 expression in KCL22r cells. Put plainly: 5-Azacytidine treatment of Ima-resistant KCL22r cells: Shp1 expression. The assay is classed as cell-based. The settings on record: Ima-resistant KCL22r cell line; along with demethylation of the SHP1 promoter region. The source says:
(§1) In this study, we have first used, as model system, a couple of Ima-sensitive (KCL22s) and Ima-resistant (KCL22r) KCL22 cell lines. In these cells, Ima resistance is independent by the oncogenic Bcr/Abl activity. We have found a very low level of Shp1 (both mRNA and protein), a protein with a tumour suppressor activity, in the KCL22r resistant cells, when compared to KCL22s sensitive cells. […] Gain-of-function mutations have been described in various hemopoietic neoplasias including Juvenile Chronic Myelomonocytic Leukemia. In Ph+ cells, oncogenic Bcr/Abl protein activates Shp2 through Gab2, an adaptor protein that, once phosphorylated is able to bind SH2 domain of Shp2. Through complex interactions that may involve the two carboxy-terminal tyrosine residues (542 and 580) Shp2 is also a signal transducer of growth factor receptor. We hypothesized that, Shp1, through dephosphorylation, might modulate the activity of Shp2 and constitute an important mechanism of Ima resistance. […] The data on primary cells support the role of Shp1 in Ima resistance in patients.

A further assay deals with KCL22r cells. Nature of the assay: 5-Azacytidine treatment of Ima-resistant KCL22r cells: Ima sensitivity (Ima growth inhibition). To be noted: Ima-resistant KCL22r cell line after 5-AC treatment. The assay is classed as cell-based.
Excerpt: as §1

As for `Nc1ncn([C@@H]2O[C@H](CO)[C@@H](O)[C@H]2O)c(=O)n1` [5-Azacytidine], in assay [1], the “expression of Shp1” value is on record as “re-induced expression of Shp1”. Besides, the “Ima sensitivity, i.e. Ima growth inhibition” value in the assay with KCL22r cells is “re-established the Ima sensitivity”.
